Consider one molecule from patent US20250135006A1, “AMPHIPHILIC TLR7/8 ADJUVANTS AND USES THEREOF” (Pfizer Inc., priority 2023, published 2025).

Like-named read-outs stand apart in the source and are kept apart here.

The data set can be described thus: Lymph node localization of AMP adjuvants in female BALB/c mice (LC-MS). The format is in vivo. To be noted: mouse, 2 nmol intramuscular; for concentration at 4 h: 4 h post injection; for concentration at 48 h: 48 h post injection. The procedure: Test compounds were prepared at a concentration of 40 uM in phosphate-buffered saline (pH 7.4)+0.1% polysorbate 80, and 50 uL (2 nmol) of each was administered by intramuscular injection into the right hind leg muscle (gastrocnemius) of female BALB/c mice. Lymph nodes (popliteal, inguinal) were collected from 5 mice per group at 4 h and 48 h post injection, snap frozen in liquid nitrogen, and stored at −80C until analysis. Blood was also collected via cardiac puncture at 4 h and 48 h post injection and centrifuged in EDTA-coated tubes to yield plasma which was stored at −80C until analysis. AMP adjuvant concentrations in each sample were quantified by liquid chromatography-mass spectrometry (LC-MS).
A standard curve containing the test compound was prepared in control mouse plasma before extraction with protein precipitation. Muscle samples were weighed and diluted in 4× 60:40 Isopropanol (IPA):Water. Lymph node samples were assumed to be 1 mg and were diluted 50× in […] 60:40 IPA:Water. Zirconium beads were added to tissue samples, followed by shaking in a bead beater to yield tissue homogenate. For plasma analysis, 20 ml of test sample or standard was added followed by 120 ml of acetonitrile containing internal standard (Simvastatin at 300 ng/ml). Tissue homogenate was prepared for analysis using a mixed matrix approach where test tissue samples (20 ml) were matrix matched with control plasma, and a plasma standard curve was matrixed matched with control mouse tissue. Internal standard was added as described above. Samples were vortexed for 1 min, then centrifuged at 3000 rpm for 5 min. 50 ml of supernatant was removed and transferred to a clean 96 well block, 150 ml of 0.1% formic acid in water was added, block was vortexed, centrifuged and 15 ml was injected on the LC/MS for analysis.
An initial mobile phase composition of 5% B was ramped to 95% in 2.0 minutes, held at 95% for 0.3 minutes, and then returned to initial 5% B for 0.3 minutes re-equilibration. The total analysis time for each sample was 3 minutes.
Data was collected on an AB Sciex API6500 (QTRAP) mass spectrometer using positive Turbo IonSpray™ electrospray ionization (ESI) and multiple reaction monitoring (MRM) mode. Typical source conditions, heated capillary temperature, gas1, gas2, and curtain gas were set at 600C, 50, 50, and 10 respectively. Transitions for Compound 1, Compound 2, and internal standard Simvastatin were m/z 1129® 923 for Compound 1, m/z 1172® 956 for Compound 2 and m/z 419® 285 for internal standard Simvastatin respectively. Data acquisition and processing was carried out with Analyst software version 1.7.

Setting [1] is: inguinal lymph node, read-out: concentration in the inguinal lymph node.
Where [2] appears, read: plasma, read-out: concentration in plasma.
Setting [3] is: popliteal lymph node, read-out: concentration in the popliteal lymph node.

In the case of `CCCCc1nc2c(N)nc3cc(CCCN4CCN(C(=O)CCOCCOCCOCCOCCOCCOCCOCCOCCOCCOCCOCCOCCOCCOCCOCCOCCOCCOCCOCCOCCOCCOCCOCCOCCNC(=O)CCOCCOCCOCCOCCNC(=O)CCCOc5c(C)c(C)c6c(c5C)CC[C@@](C)(CCC[C@H](C)CCC[C@H](C)CCCC(C)C)O6)CC4)ccc3c2n1CC(C)(CO)CO` [Compound 2, N-{75-[4-(3-{4-amino-2-butyl-1-[3-hydroxy-2-(hydroxymethyl)-2-methylpropyl]-1H-imidazo[4,5-c]quinolin-7-yl}propyl)piperazin-1-yl]-75-oxo-3,6,9,12,15,18,21,24,27,30,33,36,39,42,45,48,51,54,57,60,63,66,69,72-tetracosaoxapentaheptacont-1-yl}-17-oxo-20-({(2R)-2,5,7,8-tetramethyl-2-[(4R,8R)-4,8,12-trimethyltridecyl]-3,4-dihydro-2H-chromen-6-yl}oxy)-4,7,10,13-tetraoxa-16-azaicosan-1-amide], the concentration at 4 h under setting [1] was found to be 16600 ± 6920 ng/g, the concentration at 4 h under setting [2] came to 1100 ± 305 ng/mL and the concentration at 4 h under setting [3] amounted to 35300 ± 16800 ng/g. Also, the concentration at 48 h runs as follows: under setting [1], 17000 ± 3320 ng/g; under setting [2], < 25 ng/mL; under setting [3], 23200 ± 7820 ng/g.
